The results in this text go back to patent publication US20230312670A1, “MYELIN OLIGODENDROCYTE GLYCOPROTEIN-SPECIFIC PEPTIDE FOR THE TREATMENT OR PREVENTION OF MULTIPLE SCLEROSIS” (LOMA LINDA UNIVERSITY, priority 2016, published 2023).

Entries after “also recorded” stand apart in the source; their conditions may differ. Marks after values point to notes of the source that are not given here.

One assay has as its system CD8^+ T cells. The assay can be described thus: IFN-γ Enzyme-linked ImmunoSpot of CD8+ T cells with C1R or C1R.Qa-1^b antigen-presenting cells. In kind it is cell-based, K^b−/−D^b−/− mice. The note with it: in the presence of C1R.Qa-1^b cells. How it is done: FIG. 1A-1C. Portion of CD8^+ T cells reactive to the pool of overlapping peptides (OLPs) covering the whole length of mouse MOG was Qa-1^b restricted. (A) A schematic view of the mouse MOG OLP library. 15mer peptides across the whole length of mouse MOG (247 amino acids) and overlapped by 11 amino acids were synthesized. A pool of the 59 OLPs (“MOG_pool”) at a concentration of 4.2 μg/ml for each peptide was then generated for stimulating CD8^+ T cells purified from K^b−/−D^b−/− mice. (B) Experimental design for Enzyme-linked ImmunoSpot assay in “C”: CD8^+ T cells purified from K^b−/−D^b−/− mice were stimulated with the MOG_pool in vitro on a weekly basis. Before being stimulated each time, the CD8^+ T cells were monitored for response to the MOG_pool, using IFN-γ Enzyme-linked ImmunoSpot, in the presence of either C1R or C1R.Qa-1^b cells as antigen presenting cells. (C) Enzyme-linked ImmunoSpot data on day 7 were shown and were representative of three independent experiments. The number at the upper left corner of each well is the absolute number of IFN-γ spot forming cells (SFCs) in the corresponding well (50,000 CD8 T cells/well).
FIG. 2A-2F. Recognition of multiple OLPs by the MOG_pool-reactive CD8^+ T cell lines depended on Qa-1^b. (A-D) MOG_pool-reactive CD8^+ T cell lines were generated as described in FIG. 1. […]

The target in another assay is Qa-1^b (Mus musculus, UniProt P06339). The assay can be described thus: In vitro refolding of peptide with recombinant Qa-1^b protein and β2 microglobulin. In kind it is binding. The note with it: 10° C., four days; size exclusion, anion exchange, tetramer formation. How it is done:
FIG. 4A-4D. MOG196 can bind to Qa-1^b and stimulate MOG196-specific Qa-1^b-restricted CD8^+ T cells. (A) MOG196 was incubated with recombinant Qa-1^b and β2 microglobulin in a protein refolding buffer at 10° C. under gentle agitation (60 rpm) for four days. The solution was separated by a size exclusion column. Peak “A” and “B” represented typical non-specific protein aggregates and correctly refolded MOG196/Qa-1^b monomer, respectively. (B) Monomers in peak B of panel “A” were further analyzed by an anion exchange chromatography. (C) Proteins in peaks “A”, “B1”, and “B2” were biotinylated and portions of the biotinylated proteins were incubated with streptavidin (SA) to examine formation of tetramers. The biotinylated proteins and corresponding tetramers were analyzed in a non-denature protein gel. Arrows show protein bands for MOG196/Qa-1^b monomers. “−”: without SA; “+”: with SA; “pk A”: peak A; “pk B1”: peak B1; “pk B2“ ” peak B2; “Std”: a protein standard. […] The CD8^+ T cells were analyzed for binding to Qa-1^b/MOG196 tetramer at days 0, 7, and 14. […]
MOG196 binds to Qa-1^b and activates MOG196—specific Qa-1^b—restricted CD8^+ T cells in vitro. […] Subsequently, the biotinylated proteins and streptavidin-conjugated tetramers were analyzed in a non-denature protein gel. […]
For orientation: In gel filtration, larger molecules generally elute earlier.

Assay [1] concerns MOG196-specific Qa-1^b-restricted CD8^+ T cells. The experiment in a line: In vitro stimulation of CD8+ T cells with MOG196-pulsed antigen-presenting cells, Qa-1^b/MOG196 tetramer staining. In kind it is cell-based. The settings on record: weekly stimulation with MOG196-pulsed APCs from K^b−/−d^b−/− or C57Bl/6 mice; beginning on day 14. How it is done: FIG. 4A-4D. MOG196 can bind to Qa-1^b and stimulate MOG196-specific Qa-1^b-restricted CD8^+ T cells. (A) MOG196 was incubated with recombinant Qa-1^b and β2 microglobulin in a protein refolding buffer at 10° C. under gentle agitation (60 rpm) for four days. The solution was separated by a size exclusion column. Peak “A” and “B” represented typical non-specific protein aggregates and correctly refolded MOG196/Qa-1^b monomer, respectively. (B) Monomers in peak B of panel “A” were further analyzed by an anion exchange chromatography. (C) Proteins in peaks “A”, “B1”, and “B2” were biotinylated and portions of the biotinylated proteins were incubated with streptavidin (SA) to examine formation of tetramers. The biotinylated proteins and corresponding tetramers were analyzed in a non-denature protein gel. Arrows show protein bands for MOG196/Qa-1^b monomers. […] The CD8^+ T cells were analyzed for binding to Qa-1^b/MOG196 tetramer at days 0, 7, and 14. […]
Multichromatic flow cytometry: Briefly, about 0.5-1×10^6 cells in a FACS buffer (PBS containing 1% FBS and 0.05% sodium azide) were stained with various fluorescence-conjugated antibodies specific for the desired cell surface proteins or with tetramers at 4′C for 30 min. The stained cells were washed twice in the FACS buffer before being analyzed on a BD FACSAria II. […]

Assay [2] concerns Qa-1^b/MOG196 tetramer^+CD8^+ T cells. The assay can be described thus: CD122 and Ly49 expression on Qa-1^b/MOG196 tetramer+ CD8+ T cells after immunization with MOG196-pulsed DC2.4 cells. The note with it: intravenous MOG196-pulsed DC2.4 cells at days 0 and 10, analysis ten days after last immunization. In kind it is in vivo, C57BL/6 mice. An excerpt:
FIG. 7A-7G. Immunization with DCs pulsed with MOG196 activates Qa-1^b/MOG196 tetramer^+ cells that specifically accumulate in cervical lymph nodes. (A) C57BL/6 mice (5 mice/group) were immunized with MOG35-55 for EAE. […] (B) Representative plots of Qa-1^b/MOG196tetramer^+ cells among CD8^+ T cells in cervical lymph nodes and spleens. (C) Cumulative data of Qa-1^b/MOG196tetramer^+ cells from five mice. *P<0.05. Two-way ANOVA test. (D) Representative plots of I-A^b/MOG38-49 tetramer^+ cells among CD8^− T cells in cervical lymph nodes and spleens. (E) Cumulative data of I-A^b/MOG38-49 tetramer^+ cells from five mice. *P<0.05. Two-way ANOVA test. (F) Experimental design for “G”: C57BL/6 mice were intravenously immunized with MOG196-pulsed DC2.4 cells at days 0 and 10. […]
Multichromatic flow cytometry: Briefly, about 0.5-1×10^6 cells in a FACS buffer (PBS containing 1% FBS and 0.05% sodium azide) were stained with various fluorescence-conjugated antibodies specific for the desired cell surface proteins or with tetramers at 4′C for 30 min. The stained cells were washed twice in the FACS buffer before being analyzed on a BD FACSAria II.
CD122 and Ly49 were expressed in a portion of the Qa-1^b/MOG196 tetramer+ cells. […] Expression of these two markers on the Qa-I^b/MOG196 tetramer+ cells was analyzed.

Chain of Qa-1^b (P06339 21-295 limits assumed): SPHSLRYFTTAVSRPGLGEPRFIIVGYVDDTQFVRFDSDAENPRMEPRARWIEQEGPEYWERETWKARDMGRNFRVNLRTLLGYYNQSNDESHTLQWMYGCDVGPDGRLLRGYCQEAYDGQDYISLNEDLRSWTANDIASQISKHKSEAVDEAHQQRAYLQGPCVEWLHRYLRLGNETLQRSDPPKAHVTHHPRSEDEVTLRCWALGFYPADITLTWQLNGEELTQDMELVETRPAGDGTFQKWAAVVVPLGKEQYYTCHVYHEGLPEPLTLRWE
Chain of Qa-1^b (P61769 21-119 partner): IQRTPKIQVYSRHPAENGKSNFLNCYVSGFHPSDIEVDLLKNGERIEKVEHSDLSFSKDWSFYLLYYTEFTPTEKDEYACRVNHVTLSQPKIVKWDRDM

On to IICYNWLHR [MOG196], for which, in the assay on CD8^+ T cells, the “stimulation of an OLP105-reactive CD8^+ T cell line by truncated OLP105 peptides (IFN-γ SFCs)” value is “minimal and optimal epitope in OLP105; also recorded: highest response”. For the same sequence, in the assay with Qa-1^b, the “binding to Qa-1^b (refolding into MOG196/Qa-1^b/β2m monomer)” value is recorded as “could bind to Qa-1^b”. Besides, in assay [1], the “Qa-1^b/MOG196 tetramer+ cells in CD8^+ T cell lines” value is “could be detected”. Besides, in assay [2], the “tetramer+ cells expressing CD122” value was “about 22.6%”; the “tetramer+ cells expressing both CD122 and Ly49” value is “about 7.2%”.
